Calls of active or inactive are those of the source. The calls are words filed in the database; no cut-off is given here.
Legend:
[1] = target: Endoplasmic reticulum aminopeptidase 2 (Homo sapiens, UniProt Q6P179); assay: Inhibition of ERAP2 (unknown origin) using Arg-AMC as substrate by fluorescence based assay
[2] = target: Endoplasmic reticulum aminopeptidase 1 (Homo sapiens, UniProt Q9NZ08); assay: Inhibition of ERAP1 (unknown origin) using Leu-AMC as substrate by fluorescence based assay
Sequence of Endoplasmic reticulum aminopeptidase 1 (Q9NZ08 whole entry): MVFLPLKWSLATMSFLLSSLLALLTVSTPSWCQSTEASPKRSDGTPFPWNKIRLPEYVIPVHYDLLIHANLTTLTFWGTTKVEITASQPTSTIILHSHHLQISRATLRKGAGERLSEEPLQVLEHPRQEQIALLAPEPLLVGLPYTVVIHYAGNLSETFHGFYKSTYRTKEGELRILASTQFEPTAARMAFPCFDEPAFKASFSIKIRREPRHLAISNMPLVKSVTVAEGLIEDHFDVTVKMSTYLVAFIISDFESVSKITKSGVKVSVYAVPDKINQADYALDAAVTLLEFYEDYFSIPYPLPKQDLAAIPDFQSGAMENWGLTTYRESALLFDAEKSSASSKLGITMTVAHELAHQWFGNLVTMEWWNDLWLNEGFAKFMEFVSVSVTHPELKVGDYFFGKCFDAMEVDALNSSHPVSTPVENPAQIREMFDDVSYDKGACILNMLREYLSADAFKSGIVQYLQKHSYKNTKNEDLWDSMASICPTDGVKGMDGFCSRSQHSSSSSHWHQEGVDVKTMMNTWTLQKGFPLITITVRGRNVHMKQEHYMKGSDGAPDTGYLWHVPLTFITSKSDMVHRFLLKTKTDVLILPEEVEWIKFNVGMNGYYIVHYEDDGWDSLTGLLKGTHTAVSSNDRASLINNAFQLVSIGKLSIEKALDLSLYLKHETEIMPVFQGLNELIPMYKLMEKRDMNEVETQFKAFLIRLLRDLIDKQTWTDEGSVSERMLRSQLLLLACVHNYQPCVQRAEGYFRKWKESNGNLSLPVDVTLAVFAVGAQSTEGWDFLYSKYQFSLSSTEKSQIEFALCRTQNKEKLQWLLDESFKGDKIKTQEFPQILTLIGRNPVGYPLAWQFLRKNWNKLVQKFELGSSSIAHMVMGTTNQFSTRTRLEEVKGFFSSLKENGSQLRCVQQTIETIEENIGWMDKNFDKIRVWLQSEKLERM

Sequence of Endoplasmic reticulum aminopeptidase 2 (Q6P179 whole entry): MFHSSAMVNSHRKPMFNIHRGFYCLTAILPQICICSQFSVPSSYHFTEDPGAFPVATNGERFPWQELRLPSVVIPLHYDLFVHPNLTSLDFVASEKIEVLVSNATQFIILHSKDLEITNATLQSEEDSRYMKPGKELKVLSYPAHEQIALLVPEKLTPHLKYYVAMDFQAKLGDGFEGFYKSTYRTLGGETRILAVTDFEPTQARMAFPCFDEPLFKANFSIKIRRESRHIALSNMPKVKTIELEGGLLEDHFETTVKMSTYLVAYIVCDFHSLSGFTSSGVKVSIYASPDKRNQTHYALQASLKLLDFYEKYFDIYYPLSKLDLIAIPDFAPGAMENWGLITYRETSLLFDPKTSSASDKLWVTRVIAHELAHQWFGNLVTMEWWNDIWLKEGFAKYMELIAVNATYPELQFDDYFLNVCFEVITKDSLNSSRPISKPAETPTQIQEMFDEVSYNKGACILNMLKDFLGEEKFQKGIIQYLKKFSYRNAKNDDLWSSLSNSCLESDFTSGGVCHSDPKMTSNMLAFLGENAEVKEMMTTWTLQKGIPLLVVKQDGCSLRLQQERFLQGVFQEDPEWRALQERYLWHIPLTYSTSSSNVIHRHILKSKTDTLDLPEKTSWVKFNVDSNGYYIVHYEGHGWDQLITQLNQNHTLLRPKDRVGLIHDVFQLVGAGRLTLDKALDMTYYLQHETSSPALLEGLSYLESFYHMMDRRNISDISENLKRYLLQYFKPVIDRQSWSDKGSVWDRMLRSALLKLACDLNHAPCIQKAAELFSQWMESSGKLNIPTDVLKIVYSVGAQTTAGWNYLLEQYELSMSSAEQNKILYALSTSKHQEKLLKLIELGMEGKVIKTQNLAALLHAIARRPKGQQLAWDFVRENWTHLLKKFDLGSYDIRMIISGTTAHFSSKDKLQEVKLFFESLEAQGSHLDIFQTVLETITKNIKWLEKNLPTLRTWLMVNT

Row | SMILES | IC50 [1] [µM] | IC50 [2] [µM] | pIC50 [2]
1 | CC[C@H](C)[C@H](NC(=O)[C@H](Cc1ccc(O)cc1)NC(=O)[C@@H](N)C(C)C)C(=O)N[C@@H](Cc1cnc[nH]1)C(=O)N1CCC[C@H]1C(=O)N[C@@H](Cc1ccccc1)C(=O)O [ANGIOTENSIN IV] | 7.94 | 79.4 | –
2 | N[C@H]1CCSSC[C@@H](C(=O)NCc2ccccc2CC(=O)O)NC(=O)C[C@H](Cc2ccc(O)cc2)NC1=O | 1.26 | – | inactive

— ChEMBL document CHEMBL4622965, “Structural Basis of Inhibition of Insulin-Regulated Aminopeptidase by a Macrocyclic Peptidic Inhibitor” (ACS Med Chem Lett, 2020)
